The values below come from patent US20260078120A1, “SUBSTITUTED PYRIDOPYRIMIDINONES” (MIRATI THERAPEUTICS, INC., priority 2022, published 2026).

A value given as a limit tells only on which side of the number the result lay.

Test [1] relates to T47D (PI3Kα H1047R mutant) cells. The experiment in a line: CellTiter-Glo 2.0 luminescent cell viability assay, 72 hours, T47D cells. Format: cell-based. To be noted: Homo sapiens, T47D, 72 h, T47D (PI3Kα H1047R mutant) cells, CellTiter-Glo, approximately 72 hours; read-out: T47D (H1047R mutant) Viability IC50. Put shortly: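 Viability was measured by CellTiter-Glo 2.0 luminescence after approximately 72 h of compound exposure at 37° C. Plating was 1000 cells per well the day before dosing, with ten 1:4 dilutions from a 10 µM top concentration. Values as percent of vehicle were fitted by variable-slope log(inhibitor) regression to give IC50.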
(In general: Cellular ATP, detected with luciferase, serves as a proxy for viable cell number.)

The test system of test [2] is SKBR3 (PI3Kα wild type) cells. The experiment in a line: CellTiter-Glo 2.0 luminescent cell viability assay, 72 hours, SKBR3 cells. Format: cell-based. Conditions: Homo sapiens, SK-BR-3, 72 h, SKBR3 (PI3Kα wild type) cells, CellTiter-Glo, approximately 72 hours; read-out: SKBR3 (WT) Viability IC50. Put shortly:
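Viability measured via CTG luminescence following roughly 72 hours of compound exposure at 37° C. Dosing used a 10 um starting concentration diluted 1:4 over 10 points; percent-of-vehicle data fitted with a variable-slope four-parameter model for IC50.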

For orientation: IC50 means the concentration needed to halve the response being measured. In the case of `Cc1cc([C@@H](C)Nc2ccccc2C(=O)O)c2nc(N3CC4CC4C3)c(C#N)c(=O)n2c1` (stereo partly drawn) [Example 11-223, 2-(((1R)-1-(2-(3-azabicyclo[3.1.0]hexan-3-yl)-3-cyano-7-methyl-4-oxo-4H-pyrido[1,2-a]pyrimidin-9-yl)ethyl)amino)benzoic acid], the IC50 is 126 nM in test [1] and more than 10000 nM in test [2].
The matching figures for `Cc1cc([C@@H](C)Nc2ccccc2C(=O)O)c2nc(N3CC4CC4C3)c(C)c(=O)n2c1` (stereo partly drawn) [Example 11-224, 2-(((1R)-1-(2-(3-azabicyclo[3.1.0]hexan-3-yl)-3,7-dimethyl-4-oxo-4H-pyrido[1,2-a]pyrimidin-9-yl)ethyl)amino)benzoic acid]: 120 nM and more than 10000 nM.
Consider `Cc1cc([C@@H](C)Nc2ccccc2C(=O)O)c2nc(N3CCN(c4cccc(C#N)c4)CC3)c(C#N)c(=O)n2c1` [Example 11-225, (R)-2-((1-(3-cyano-2-(4-(3-cyanophenyl)piperazin-1-yl)-7-methyl-4-oxo-4H-pyrido[1,2-a]pyrimidin-9-yl)ethyl)amino)benzoic acid], for which the values for the half-maximal inhibitory concentration (IC50) in test [1] and in test [2] were 144 nM and more than 10000 nM, respectively.
Consider `Cc1cc([C@@H](C)Nc2ccccc2C(=O)O)c2nc(N3CCN(c4cccc(C#N)c4)CC3)c(C)c(=O)n2c1` [Example 11-226, (R)-2-((1-(2-(4-(3-cyanophenyl)piperazin-1-yl)-3,7-dimethyl-4-oxo-4H-pyrido[1,2-a]pyrimidin-9-yl)ethyl)amino)benzoic acid], for which the IC50 in test [1] was 282 nM; in test [2], more than 10000 nM.
Taken in the same sequence, the figures for `Cc1cc([C@@H](C)Nc2ccccc2C(=O)O)c2nc(N3CC4CC(C4)C3)c(C#N)c(=O)n2c1` [Example 11-227, (R)-2-((1-(2-(3-azabicyclo[3.1.1]heptan-3-yl)-3-cyano-7-methyl-4-oxo-4H-pyrido[1,2-a]pyrimidin-9-yl)ethyl)amino)benzoic acid] were 123 nM and more than 10000 nM.
Taken in the same sequence, the figures for `Cc1cc([C@@H](C)Nc2ccccc2C(=O)O)c2nc(N3C[C@H]4C[C@@H]3C(F)(F)C4)c(C)c(=O)n2c1` [Example 11-228, 2-(((R)-1-(2-((1R,4S)-6,6-difluoro-2-azabicyclo[2.2.1]heptan-2-yl)-3,7-dimethyl-4-oxo-4H-pyrido[1,2-a]pyrimidin-9-yl)ethyl)amino)benzoic acid] were 155 nM and more than 10000 nM.
Taken in the same sequence, the figures for `Cc1cc([C@@H](C)Nc2ccccc2C(=O)O)c2nc(N3C[C@H]4C[C@@H]3CC4(F)F)c(C#N)c(=O)n2c1` [Example 11-230, 2-(((R)-1-(3-cyano-2-((1R,4R)-5,5-difluoro-2-azabicyclo[2.2.1]heptan-2-yl)-7-methyl-4-oxo-4H-pyrido[1,2-a]pyrimidin-9-yl)ethyl)amino)benzoic acid] were 201 nM and more than 10000 nM.
`Cc1cc([C@@H](C)Nc2ccccc2C(=O)O)c2nc(N3C[C@@H]4C[C@H]3CC4(F)F)c(C)c(=O)n2c1` [Example 11-231, 2-(((R)-1-(2-((1S,4S)-5,5-difluoro-2-azabicyclo[2.2.1]heptan-2-yl)-3,7-dimethyl-4-oxo-4H-pyrido[1,2-a]pyrimidin-9-yl)ethyl)amino)benzoic acid]: the IC50 is 192 nM in test [1] and more than 10000 nM in test [2].
Regarding `C#Cc1ccc(N[C@H](C)c2cc(C)cn3c(=O)cc(N4CCCCC4)nc23)c(C(=O)O)c1` [Example 11-232, (R)-5-ethynyl-2-((1-(7-methyl-4-oxo-2-(piperidin-1-yl)-4H-pyrido[1,2-a]pyrimidin-9-yl)ethyl)amino)benzoic acid], the figures for the IC50 in test [1] and in test [2] were 3280 nM and more than 10000 nM, respectively.
Taken in the same sequence, the figures for `Cc1cc([C@@H](C)Nc2ccccc2C(=O)O)c2nc(-c3cnn(-c4ccc(C#N)cc4)c3)c(C)c(=O)n2c1` [Example 11-233, (R)-2-((1-(2-(1-(4-cyanophenyl)-1H-pyrazol-4-yl)-3,7-dimethyl-4-oxo-4H-pyrido[1,2-a]pyrimidin-9-yl)ethyl)amino)benzoic acid] were 212 nM and more than 10000 nM.
For the compound `Cc1cc([C@@H](C)Nc2ccccc2C(=O)O)c2nc(-c3cn(C)cn3)c(C)c(=O)n2c1` [Example 11-234, (R)-2-((1-(3,7-dimethyl-2-(1-methyl-1H-imidazol-4-yl)-4-oxo-4H-pyrido[1,2-a]pyrimidin-9-yl)ethyl)amino)benzoic acid], the IC50 in test [1] was 999 nM; in test [2], more than 10000 nM.
The matching figures for `Cc1cc([C@@H](C)Nc2ccccc2C(=O)O)c2nc(-c3c[nH]cn3)c(C)c(=O)n2c1` [Example 11-235, (R)-2-((1-(2-(1H-imidazol-4-yl)-3,7-dimethyl-4-oxo-4H-pyrido[1,2-a]pyrimidin-9-yl)ethyl)amino)benzoic acid]: 3600 nM and more than 10000 nM.
Taken in the same sequence, the figures for `Cc1cc([C@@H](C)Nc2ccccc2C(=O)O)c2nc(-c3cn(-c4ccc(C#N)cc4)cn3)c(C)c(=O)n2c1` [Example 11-236, (R)-2-((1-(2-(1-(4-cyanophenyl)-1H-imidazol-4-yl)-3,7-dimethyl-4-oxo-4H-pyrido[1,2-a]pyrimidin-9-yl)ethyl)amino)benzoic acid] were 679 nM and more than 10000 nM.
The matching figures for `Cc1cc([C@@H](C)Nc2ccccc2C(=O)O)c2nc(-c3cn(-c4ccc(C#N)cc4)cn3)cc(=O)n2c1` [Example 11-237, (R)-2-((1-(2-(1-(4-cyanophenyl)-1H-imidazol-4-yl)-7-methyl-4-oxo-4H-pyrido[1,2-a]pyrimidin-9-yl)ethyl)amino)benzoic acid]: 1410 nM and more than 10000 nM.
As for `Cc1cc([C@@H](C)Nc2ccccc2C(=O)O)c2nc(-c3cccc(C(C)(C)C#N)c3)c(C)c(=O)n2c1` [Example 11-238, (R)-2-((1-(2-(3-(2-cyanopropan-2-yl)phenyl)-3,7-dimethyl-4-oxo-4H-pyrido[1,2-a]pyrimidin-9-yl)ethyl)amino)benzoic acid], the IC50 is 310 nM in test [1] and more than 10000 nM in test [2].
Regarding `Cc1cc([C@@H](C)Nc2ccccc2C(=O)O)c2nc(-c3cccc(C(C)(C)C#N)c3)cc(=O)n2c1` [Example 11-239, (R)-2-((1-(2-(3-(2-cyanopropan-2-yl)phenyl)-7-methyl-4-oxo-4H-pyrido[1,2-a]pyrimidin-9-yl)ethyl)amino)benzoic acid], the IC50 was 2970 nM in test [1] and more than 10000 nM in test [2].
Taken in the same sequence, the figures for `Cc1cc([C@@H](C)Nc2ccccc2C(=O)O)c2nc(-c3cnn(-c4ccc(C#N)cc4)c3)cc(=O)n2c1` [Example 11-240, (R)-2-((1-(2-(1-(4-cyanophenyl)-1H-pyrazol-4-yl)-7-methyl-4-oxo-4H-pyrido[1,2-a]pyrimidin-9-yl)ethyl)amino)benzoic acid] were 573 nM and 3230 nM.
As for `C#CC(Nc1ccccc1C(=O)O)c1cc(C)cn2c(=O)c(C)c(N3CCC(F)(F)CC3)nc12` (centres unmarked) [Example 11-241, 2-((1-(2-(4,4-difluoropiperidin-1-yl)-3,7-dimethyl-4-oxo-4H-pyrido[1,2-a]pyrimidin-9-yl)prop-2-yn-1-yl)amino)benzoic acid], the IC50 in test [1] and in test [2] was more than 10000 nM each time.
In the case of `Cc1cc([C@@H](C)Nc2ccccc2C(=O)O)c2nc(Cl)c(C)c(=O)n2c1` [Example 11-242, (R)-2-((1-(2-chloro-3,7-dimethyl-4-oxo-4H-pyrido[1,2-a]pyrimidin-9-yl)ethyl)amino)benzoic acid], the half-inhibitory concentration (IC50) in test [1] and in test [2] was more than 10000 nM each time.
Regarding `Cc1cc([C@@H](C)Nc2ccccc2C(=O)O)c2nc(Cl)c(C#N)c(=O)n2c1` [Example 11-243, (R)-2-((1-(2-chloro-3-cyano-7-methyl-4-oxo-4H-pyrido[1,2-a]pyrimidin-9-yl)ethyl)amino)benzoic acid], the IC50 was 7900 nM in test [1] and more than 10000 nM in test [2].
Consider `Cc1cc([C@@H](C)Nc2ccccc2C(=O)O)c2nc(C3CC3)c(C#N)c(=O)n2c1` [Example 11-244, (R)-2-((1-(3-cyano-2-cyclopropyl-7-methyl-4-oxo-4H-pyrido[1,2-a]pyrimidin-9-yl)ethyl)amino)benzoic acid], for which the half-inhibitory concentration (IC50) in test [1] is 116 nM; in test [2], more than 10000 nM.
Taken in the same sequence, the figures for `Cc1cc([C@@H](C)Nc2ccccc2C(=O)O)c2nc(O[C@@H]3CCOC3)c(C)c(=O)n2c1` [Example 11-245, 2-(((R)-1-(3,7-dimethyl-4-oxo-2-(((R)-tetrahydrofuran-3-yl)oxy)-4H-pyrido[1,2-a]pyrimidin-9-yl)ethyl)amino)benzoic acid] were 166 nM and more than 10000 nM.
In the case of `Cc1cc([C@@H](C)Nc2ccccc2C(=O)O)c2nc(O[C@H]3CCOC3)c(C)c(=O)n2c1` [Example 11-246, 2-(((R)-1-(3,7-dimethyl-4-oxo-2-(((S)-tetrahydrofuran-3-yl)oxy)-4H-pyrido[1,2-a]pyrimidin-9-yl)ethyl)amino)benzoic acid], the IC50 was 196 nM in test [1] and more than 10000 nM in test [2].
On to `Cc1cc([C@@H](C)Nc2ccccc2C(=O)O)c2nc(O[C@@H]3CCOC3)c(C#N)c(=O)n2c1` [Example 11-247, 2-(((R)-1-(3-cyano-7-methyl-4-oxo-2-(((R)-tetrahydrofuran-3-yl)oxy)-4H-pyrido[1,2-a]pyrimidin-9-yl)ethyl)amino)benzoic acid], for which the IC50 was 1540 nM in test [1] and more than 10000 nM in test [2].
The matching figures for `Cc1cc([C@@H](C)Nc2ccccc2C(=O)O)c2nc(O[C@H]3CCOC3)c(C#N)c(=O)n2c1` [Example 11-248, 2-(((R)-1-(3-cyano-7-methyl-4-oxo-2-(((S)-tetrahydrofuran-3-yl)oxy)-4H-pyrido[1,2-a]pyrimidin-9-yl)ethyl)amino)benzoic acid]: 2200 nM and 4310 nM.
